Test results as given in patent US20190381015A1, “PHARMACEUTICAL USE OF BERBERINE” (priority 2016, published 2019).
Entries after “also recorded” stand apart in the source; their conditions may differ.

Assays:
[1] = test system: idiopathic pulmonary hypertension; experiment: Clinical experiment in patients with idiopathic pulmonary hypertension; assay type: in vivo, human; settings: berberine 0.3 g/d for 3 months added to original targeted drugs, 3 per group
Source text: FIG. 4 is a histogram of contrast experiment data showing that berberine reduces the mean pulmonary arterial pressure. […] Every three data columns in the figure are a group, and are a normal group, a blank group, and a berberine group from left to right in sequence.
Six patients with idiopathic pulmonary hypertension were divided into two groups (3 in each group): a control group (administered with targeted drugs according to the original doses) and a berberine group (based on the original targeted drugs, additionally administered with berberine at 0.3 g/d for a total of 3 months).

in-stent restenosis = experiment: In-stent restenosis in patients with drug-eluting stent implantation; assay type: in vivo, human
Experimental: FIG. 5 is an experimental control diagram of berberine in the prevention and treatment of in-stent restenosis.
100 patients with drug-eluting stent implantation were randomly divided into two groups: a control group (without additional berberine) and a berberine group (additionally administered with berberine at 0.3 g/d since the 3th month after surgery for a total of 6 months), and coronary angiography was performed again at the 12th month after surgery.

[2] = cited from earlier work
[3] = test system: pulmonary hypertension induced by dehydrogenated monocrotaline; experiment: Dehydrogenated monocrotaline-induced pulmonary hypertension in beagles; assay type: in vivo
Source text: FIG. 2 is a mirror view for a contrast experiment of berberine inhibiting pulmonary artery remodeling. Animals with pulmonary hypertension are randomly divided into a normal control group, a berberine group, and a blank group without treatment. Histochemical staining (HE) and vascular endothelial vWF staining, smooth muscle cell staining (SMA).
20 beagles were selected, were subjected to pulmonary hemodynamics measurement, and then were randomly divided into a berberine group ([…]) and a control group (intragastric gavage of a berberine coating, without berberine, 14 days in total). […] Results: the mean pulmonary arterial pressure of only one animal in the berberine group reaches 28 mmHg, and the mean pulmonary arterial pressures of the other 9 animals are all <25 mmHg (19±3.0 mmHg). In contrast, the mean pulmonary arterial pressures of 8 animals in the control group are all >26 mmHg (28.4±2.1 mmHg), one animal for 24.6 mmHg, and the other one for 24.8 mmHg.

[4] = test system: pulmonary arterial smooth muscle cells; experiment: Noradrenaline-stimulated pulmonary arterial smooth muscle cells: Grk2 and LKB1; assay type: cell-based; settings: pulmonary arterial smooth muscle cells of normal animals, berberine added for 30 minutes (CTL group), FIG. 1
Experimental: FIG. 1 is a schematic diagram of berberine inhibiting noradrenaline. The pulmonary arterial smooth muscle cells are stimulated with noradrenaline (NE) for 2 hours and then randomly divided into a berberine group (Ctl group, berberine for 4 hours) and a control group. In the control group, cells are collected at various time points (30 minutes-4 hours) after the grouping, and the protein phosphorylation activities of liver kinase B1 (LKB1) and G-protein coupled receptor kinase 2 (Grk2) are measured. GAPDH is an internal reference protein.

[5] = test system: acute myocardial infarction; experiment: Cardiac failure in patients with acute myocardial infarction / ischemic cardiomyopathy; assay type: in vivo, human
Source text: 40 patients with acute myocardial infarction were randomly divided into a control group and a berberine group (0.3 g, three times a day, three months later). The mean left ventricular ejection fraction of the control group is 41%, while the mean left ventricular ejection fraction of the berberine group is increased to 53% (p=0.037).

[6] = test system: myocardial infarction model; experiment: Myocardial infarction animal model; assay type: in vivo
Source text: FIG. 6 is an experimental result diagram showing berberine for prevention and treatment of ischemic cardiomyopathy.
30 animals in the myocardial infarction model were randomly divided into a control group and a berberine group by intragastric gavage.

[7] = beagles, intragastric gavage 0.1 g/d for 14 days before dehydrogenated monocrotaline 60 mg/kg, retested after 8 weeks, 9 of 10 animals

## COc1ccc2cc3[n+](cc2c1OC)CCc1cc2c(cc1-3)OCO2 [berberine]
[1]; FIG. 3
  right ventricular function (right ventricular systolic displacement amplitude, TAPSE): significantly improved
[1]; FIG. 4
  mean pulmonary arterial pressure: significantly reduced
in-stent restenosis; 7 control patients with restenosis, oral berberine 0.3 g/d for 6 months, followed up 9 months, result in 6 patients, FIG. 5
  stenosis degree in patients with restenosis treated afterwards: significantly reduced
in-stent restenosis; berberine 0.3 g/d from 3rd month after surgery for 6 months, coronary angiography at 12th month, control 14%, p=0.035
  proportion of in-stent restenosis: 4%
in-stent restenosis; berberine 0.3 g/d from 3rd month after surgery for 6 months, coronary angiography at 12th month, control N=7
  number of cases showing restenosis: 2 cases
in-stent restenosis; patient with severe in-stent restenosis, continuous berberine treatment for 6 months, FIG. 5
  in-stent restenosis on coronary angiography, single patient: substantially disappears
in-stent restenosis; restenosis cases of berberine group, 12th month after surgery, control 76.3±9%, p=0.029
  degree of stenosis: 58±4%
[2]; benzene, diethyl ether, chloroform
  solubility in benzene, diethyl ether, and chloroform: insoluble
[2]; water
  solubility in water: soluble
[3]; 8 control animals with mean pulmonary arterial pressure >25 mmHg, then berberine intragastric gavage 0.1 g/d for 42 days, at 14 weeks, FIG. 2
  proliferation degree of pulmonary arterial smooth muscle / pathological remodeling of pulmonary vasculature: significantly reduced
[3]; beagles, intragastric gavage 0.1 g/d for 14 days before dehydrogenated monocrotaline 60 mg/kg, retested after 8 weeks, 1 of 10 animals
  mean pulmonary arterial pressure, one animal of the berberine group: 28 mmHg
[3]; [7]
  mean pulmonary arterial pressures, other 9 animals of the berberine group (bound): < 25 mmHg
  mean pulmonary arterial pressures, other 9 animals of the berberine group (mean ± spread): 19±3.0 mmHg
[4]
  Grk2 and LKB1 after noradrenaline stimulation: significant decrease
[5]; one patient with acute anterior myocardial infarction, berberine treatment for 3 months, FIG. 7
  cardiac cavity, single patient: reduced
[5]; one patient, day 22 after myocardial infarction, then berberine for 3 months, ultrasonic cardiography, FIG. 7
  ejection fraction, single patient: significantly increased; also recorded: significant increased
[5]; one patient, berberine for 3 months, FIG. 7
  myocardial contractility / systolic function, single patient: improved; also recorded: significantly enhanced
[5]; patients with acute myocardial infarction, 0.3 g three times a day, three months later, control 41%, p=0.037
  mean left ventricular ejection fraction: 53%
[6]; berberine treatment group
  arrangement of cardiomyocytes: arranged intactly
[6]; intragastric gavage, 0.3 g three times a day, three months later, FIG. 6 right A-C
  apoptotic bodies (electron microscopy): decrease
[6]; intragastric gavage, 0.3 g three times a day, three months later, fluorescent staining, FIG. 6 left
  apoptosis of myocardial cells: significantly reduces
